Assays:
Test in all cases: biochemical
Details in all cases: read-out: % inhibition mean (Z'Lyte)
CAMK1D (CaMKI delta) = CAMK1D (CaMKI delta) (Homo sapiens, UniProt Q8IU85)
SBK1 = SBK1 (Homo sapiens, UniProt Q52WX2)
MAP3K8 (COT) = MAP3K8 (COT) (Homo sapiens, UniProt P41279)
PTK6 (Brk) = PTK6 (Brk) (Homo sapiens, UniProt Q13882)
CDC42 BPA (MRCKA) = CDC42 BPA (MRCKA) (Homo sapiens, UniProt Q5VT25)
BLK = BLK (Homo sapiens, UniProt P51451)
CSNK2A1 (CK2 alpha 1) = CSNK2A1 (CK2 alpha 1) (Homo sapiens, UniProt P68400)
STK24 (MST3) = STK24 (MST3) (Homo sapiens, UniProt Q9Y6E0)
MAPKAPK2 = MAPKAPK2 (Homo sapiens, UniProt P49137)
[1] = molecular target: CSNK1E (CK1 epsilon) R178C (Homo sapiens, UniProt P49674, R178C)
MAPK3 (ERK1) = MAPK3 (ERK1) (Homo sapiens, UniProt P27361)
MAP2K2 (MEK2) = MAP2K2 (MEK2) (Homo sapiens, UniProt P36507)
IKBKB (IKK beta) = IKBKB (IKK beta) (Homo sapiens, UniProt O14920)
MAPK8 (JNK1) = MAPK8 (JNK1) (Homo sapiens, UniProt P45983)
FGFR1 = FGFR1 (Homo sapiens, UniProt P11362)
EGFR (ErbB1) = EGFR (ErbB1) (Homo sapiens, UniProt P00533)
PLK1 = PLK1 (Homo sapiens, UniProt P53350)
RAF1 (cRAF) Y340D Y341D = RAF1 (cRAF) Y340D Y341D (Homo sapiens, UniProt P04049, Y340D/Y341D)
PRKCB1 (PKC beta I) = PRKCB1 (PKC beta I) (Homo sapiens, UniProt P05771)
PLK3 = PLK3 (Homo sapiens, UniProt Q9H4B4)
JAK3 = JAK3 (Homo sapiens, UniProt P52333)
FGFR2 N549H = FGFR2 N549H (Homo sapiens, UniProt P21802, N549H)
FYN = FYN (Homo sapiens, UniProt P06241)
CDK2/cyclin A = CDK2/cyclin A (Homo sapiens, UniProt P24941)
INSR = INSR (Homo sapiens, UniProt P06213)
PHKG1 = PHKG1 (Homo sapiens, UniProt Q16816)
MAP4K5 (KHS1) = MAP4K5 (KHS1) (Homo sapiens, UniProt Q9Y4K4)
PIM2 = PIM2 (Homo sapiens, UniProt Q9P1W9)

PRKCB1 (PKC beta I), sequence (P05771 whole entry): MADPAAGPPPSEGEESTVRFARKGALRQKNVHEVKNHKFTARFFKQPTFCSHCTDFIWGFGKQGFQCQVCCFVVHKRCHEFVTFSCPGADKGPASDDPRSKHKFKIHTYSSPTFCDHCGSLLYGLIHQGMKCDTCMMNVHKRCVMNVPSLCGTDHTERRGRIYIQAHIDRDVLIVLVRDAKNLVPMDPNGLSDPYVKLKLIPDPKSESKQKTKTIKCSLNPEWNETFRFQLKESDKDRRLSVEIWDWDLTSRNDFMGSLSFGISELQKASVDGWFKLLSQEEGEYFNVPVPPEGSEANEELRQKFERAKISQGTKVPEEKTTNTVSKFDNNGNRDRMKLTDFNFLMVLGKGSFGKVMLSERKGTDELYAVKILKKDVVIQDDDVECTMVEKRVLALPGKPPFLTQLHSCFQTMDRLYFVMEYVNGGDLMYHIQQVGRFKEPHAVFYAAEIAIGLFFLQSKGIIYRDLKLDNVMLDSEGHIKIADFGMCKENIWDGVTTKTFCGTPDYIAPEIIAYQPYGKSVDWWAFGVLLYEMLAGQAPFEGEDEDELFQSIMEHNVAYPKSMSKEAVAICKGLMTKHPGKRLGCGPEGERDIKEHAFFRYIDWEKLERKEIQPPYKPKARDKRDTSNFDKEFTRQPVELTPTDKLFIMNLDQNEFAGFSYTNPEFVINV
SBK1, sequence (Q52WX2 whole entry): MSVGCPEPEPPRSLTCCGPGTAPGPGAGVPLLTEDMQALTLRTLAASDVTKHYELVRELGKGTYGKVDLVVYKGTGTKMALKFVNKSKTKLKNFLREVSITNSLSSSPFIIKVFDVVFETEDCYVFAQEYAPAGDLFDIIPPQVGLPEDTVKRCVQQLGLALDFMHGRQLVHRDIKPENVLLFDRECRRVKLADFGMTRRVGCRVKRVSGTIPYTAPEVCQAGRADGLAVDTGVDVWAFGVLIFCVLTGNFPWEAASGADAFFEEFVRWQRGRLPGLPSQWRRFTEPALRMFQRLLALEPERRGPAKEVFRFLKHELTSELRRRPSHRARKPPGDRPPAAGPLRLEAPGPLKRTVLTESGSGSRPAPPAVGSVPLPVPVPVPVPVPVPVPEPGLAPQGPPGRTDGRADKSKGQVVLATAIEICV
MAP2K2 (MEK2), sequence (P36507 whole entry): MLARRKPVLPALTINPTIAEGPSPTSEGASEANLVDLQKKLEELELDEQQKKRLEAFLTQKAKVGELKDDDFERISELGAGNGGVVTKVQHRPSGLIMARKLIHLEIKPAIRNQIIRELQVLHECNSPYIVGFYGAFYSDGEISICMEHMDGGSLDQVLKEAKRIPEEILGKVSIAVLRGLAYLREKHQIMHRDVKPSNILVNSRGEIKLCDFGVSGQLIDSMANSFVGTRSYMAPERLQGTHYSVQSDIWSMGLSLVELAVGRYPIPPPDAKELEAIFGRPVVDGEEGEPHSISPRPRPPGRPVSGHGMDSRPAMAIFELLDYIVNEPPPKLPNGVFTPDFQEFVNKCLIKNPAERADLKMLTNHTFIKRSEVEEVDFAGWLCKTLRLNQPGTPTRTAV
EGFR (ErbB1), sequence (P00533 whole entry): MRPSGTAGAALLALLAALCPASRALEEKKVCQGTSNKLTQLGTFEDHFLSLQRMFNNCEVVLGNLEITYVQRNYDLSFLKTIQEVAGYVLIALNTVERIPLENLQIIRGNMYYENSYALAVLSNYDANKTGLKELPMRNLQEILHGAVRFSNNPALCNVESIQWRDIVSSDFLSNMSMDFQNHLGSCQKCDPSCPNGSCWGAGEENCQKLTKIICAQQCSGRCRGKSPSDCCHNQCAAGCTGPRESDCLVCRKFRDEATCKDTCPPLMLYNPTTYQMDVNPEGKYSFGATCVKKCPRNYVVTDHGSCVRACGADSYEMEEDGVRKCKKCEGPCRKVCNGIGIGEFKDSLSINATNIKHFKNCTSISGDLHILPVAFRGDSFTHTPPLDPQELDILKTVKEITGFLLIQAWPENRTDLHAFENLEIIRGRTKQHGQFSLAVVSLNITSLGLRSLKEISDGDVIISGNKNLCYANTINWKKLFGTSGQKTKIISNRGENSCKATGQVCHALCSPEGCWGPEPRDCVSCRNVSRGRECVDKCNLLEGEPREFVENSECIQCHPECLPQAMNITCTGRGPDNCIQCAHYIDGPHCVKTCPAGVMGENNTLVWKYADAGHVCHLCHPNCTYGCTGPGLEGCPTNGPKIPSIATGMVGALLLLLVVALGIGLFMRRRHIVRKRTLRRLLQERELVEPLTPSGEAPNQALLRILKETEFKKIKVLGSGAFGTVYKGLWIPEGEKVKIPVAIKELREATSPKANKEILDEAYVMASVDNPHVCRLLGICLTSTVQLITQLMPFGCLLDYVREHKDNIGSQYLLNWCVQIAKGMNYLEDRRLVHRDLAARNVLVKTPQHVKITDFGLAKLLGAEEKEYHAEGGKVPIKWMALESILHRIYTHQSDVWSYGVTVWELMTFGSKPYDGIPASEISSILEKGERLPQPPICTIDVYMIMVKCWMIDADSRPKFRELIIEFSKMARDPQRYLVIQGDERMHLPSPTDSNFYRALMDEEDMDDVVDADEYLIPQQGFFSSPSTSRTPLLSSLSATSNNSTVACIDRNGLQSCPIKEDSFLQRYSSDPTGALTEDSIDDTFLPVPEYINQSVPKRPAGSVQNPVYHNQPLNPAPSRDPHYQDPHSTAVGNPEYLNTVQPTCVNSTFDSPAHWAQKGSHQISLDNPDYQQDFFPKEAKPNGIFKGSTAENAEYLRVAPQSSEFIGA
CAMK1D (CaMKI delta), sequence (Q8IU85 whole entry): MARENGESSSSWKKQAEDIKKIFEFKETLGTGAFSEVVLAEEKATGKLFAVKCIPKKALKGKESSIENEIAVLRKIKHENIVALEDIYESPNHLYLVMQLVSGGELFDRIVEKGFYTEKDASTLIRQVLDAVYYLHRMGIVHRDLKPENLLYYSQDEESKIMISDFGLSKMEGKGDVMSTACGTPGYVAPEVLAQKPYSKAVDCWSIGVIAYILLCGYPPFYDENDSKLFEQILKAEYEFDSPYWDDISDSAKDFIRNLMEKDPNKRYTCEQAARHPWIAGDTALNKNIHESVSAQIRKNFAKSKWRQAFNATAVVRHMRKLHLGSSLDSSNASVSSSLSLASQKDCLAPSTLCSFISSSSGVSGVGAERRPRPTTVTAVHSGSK
PHKG1, sequence (Q16816 whole entry): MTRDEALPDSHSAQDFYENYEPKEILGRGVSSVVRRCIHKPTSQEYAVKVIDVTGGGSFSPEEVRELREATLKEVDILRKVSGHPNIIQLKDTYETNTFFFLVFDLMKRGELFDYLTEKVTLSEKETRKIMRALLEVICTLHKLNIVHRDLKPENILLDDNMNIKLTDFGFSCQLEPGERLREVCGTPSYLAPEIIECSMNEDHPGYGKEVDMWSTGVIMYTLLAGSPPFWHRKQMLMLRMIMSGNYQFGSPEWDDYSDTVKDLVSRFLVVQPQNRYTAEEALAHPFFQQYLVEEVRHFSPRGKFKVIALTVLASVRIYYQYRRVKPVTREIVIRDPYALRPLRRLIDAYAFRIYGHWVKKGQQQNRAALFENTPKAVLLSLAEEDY
FYN, sequence (P06241 whole entry): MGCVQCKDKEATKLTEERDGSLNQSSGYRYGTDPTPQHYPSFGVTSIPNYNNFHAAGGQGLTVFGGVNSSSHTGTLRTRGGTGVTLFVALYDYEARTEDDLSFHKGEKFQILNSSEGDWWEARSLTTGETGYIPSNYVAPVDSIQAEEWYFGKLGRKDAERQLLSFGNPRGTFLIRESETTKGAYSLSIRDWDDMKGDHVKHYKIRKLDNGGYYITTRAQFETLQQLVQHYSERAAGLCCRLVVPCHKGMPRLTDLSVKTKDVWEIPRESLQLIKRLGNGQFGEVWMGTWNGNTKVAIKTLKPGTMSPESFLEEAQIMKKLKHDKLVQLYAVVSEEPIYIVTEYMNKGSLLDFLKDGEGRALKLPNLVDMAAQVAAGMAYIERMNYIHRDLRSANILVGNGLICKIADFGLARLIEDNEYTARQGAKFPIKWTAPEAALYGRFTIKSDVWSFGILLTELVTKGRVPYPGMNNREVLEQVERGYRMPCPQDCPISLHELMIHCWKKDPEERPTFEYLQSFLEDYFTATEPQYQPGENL
CSNK2A1 (CK2 alpha 1), sequence (P68400 whole entry): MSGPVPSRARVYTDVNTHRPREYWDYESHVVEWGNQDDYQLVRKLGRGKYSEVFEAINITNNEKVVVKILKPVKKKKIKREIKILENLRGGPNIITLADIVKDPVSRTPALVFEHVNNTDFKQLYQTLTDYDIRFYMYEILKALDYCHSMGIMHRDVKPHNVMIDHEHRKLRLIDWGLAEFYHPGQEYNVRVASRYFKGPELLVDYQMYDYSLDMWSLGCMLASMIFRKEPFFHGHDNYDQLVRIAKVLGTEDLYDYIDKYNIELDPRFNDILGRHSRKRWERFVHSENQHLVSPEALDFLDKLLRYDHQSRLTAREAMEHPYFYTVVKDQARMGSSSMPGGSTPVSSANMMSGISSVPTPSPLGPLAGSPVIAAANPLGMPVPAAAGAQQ
MAPK3 (ERK1), sequence (P27361 whole entry): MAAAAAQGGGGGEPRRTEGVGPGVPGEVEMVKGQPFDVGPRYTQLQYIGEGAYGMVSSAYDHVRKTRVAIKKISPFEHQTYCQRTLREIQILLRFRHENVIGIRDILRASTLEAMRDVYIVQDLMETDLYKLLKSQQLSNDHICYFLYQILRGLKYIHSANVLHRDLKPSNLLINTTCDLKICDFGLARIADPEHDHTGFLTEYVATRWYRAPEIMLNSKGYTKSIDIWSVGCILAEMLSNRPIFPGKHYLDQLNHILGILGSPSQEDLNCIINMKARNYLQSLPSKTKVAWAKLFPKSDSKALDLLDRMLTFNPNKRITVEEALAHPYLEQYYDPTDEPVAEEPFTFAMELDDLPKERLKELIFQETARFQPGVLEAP

In the case of COc1ccc2nc3cc(Cl)ccc3c(Nc3cc(CN4CCCC4)c(O)c(CN4CCCC4)c3)c2n1 [Pyronaridine, 4-[(7-Chloro-2-methoxybenzo[b][1,5]naphthyridin-10-yl)amino]-2,6-bis(1-pyrrolidinylmethyl)phenol phosphate (1:4)], the inhibition at 1 µM (CAMK1D (CaMKI delta)) is reported as -26%, the inhibition at 1 µM (SBK1) is reported as 6% and the inhibition at 1 µM (MAP3K8 (COT)) is reported as -6%. The inhibition at 1 µM (PTK6 (Brk)) was -4%, the inhibition at 1 µM (CDC42 BPA (MRCKA)) was 2% and the inhibition at 1 µM (BLK) was 3%. It also gave an inhibition at 1 µM (CSNK2A1 (CK2 alpha 1)) of 7%, an inhibition at 1 µM (STK24 (MST3)) of 4% and an inhibition at 1 µM (MAPKAPK2) of 10%. It also gave an inhibition at 1 µM [1] of 1%, an inhibition at 1 µM (MAPK3 (ERK1)) of 6% and an inhibition at 1 µM (MAP2K2 (MEK2)) of 2%. The inhibition at 1 µM (IKBKB (IKK beta)) was 1%, the inhibition at 1 µM (MAPK8 (JNK1)) was 3% and the inhibition at 1 µM (FGFR1) was -5%. The inhibition at 1 µM (EGFR (ErbB1)) was -5%, the inhibition at 1 µM (PLK1) was 6% and the inhibition at 1 µM (RAF1 (cRAF) Y340D Y341D) was -9%. The inhibition at 1 µM (PRKCB1 (PKC beta I)) was 2%, the inhibition at 1 µM (PLK3) was 28% and the inhibition at 1 µM (JAK3) was 1%. It also gave an inhibition at 1 µM (FGFR2 N549H) of 2%, an inhibition at 1 µM (FYN) of 2% and an inhibition at 1 µM (CDK2/cyclin A) of 0%. It also gave an inhibition at 1 µM (INSR) of 10%, an inhibition at 1 µM (PHKG1) of -1% and an inhibition at 1 µM (MAP4K5 (KHS1)) of 5%. It also gave an inhibition at 1 µM (PIM2) of -4%.

Reference: article doi:10.1101/2021.09.30.462449v1 (biorxiv, 2021)
